Laboratory results reported in the NIST ThermoML archive (doi:10.1021/je050147b).
Several values for one entry are separate records, joined by “and”; a condition that tells them apart may be missing. Equal entries are not always repeated.

Details: Liquid; for mass density: 101.33 kPa

CCCCn1cc[n+](C)c1.F[P-](F)(F)(F)(F)F [1-butyl-3-methylimidazolium hexafluorophosphate]
Details | mass density
273.1 K | 1388.85 kg/m3
278.1 K | 1384.55 kg/m3
283.1 K | 1380.27 kg/m3
288.15 K | 1375.99 kg/m3
293.15 K | 1371.72 kg/m3
298.15 K | 1367.45 kg/m3
303.15 K | 1363.19 kg/m3
313.15 K | 1354.95 kg/m3 and 1354.96 kg/m3
323.15 K | 1346.75 kg/m3
333.15 K | 1338.58 kg/m3
343.15 K | 1330.45 kg/m3
353.15 K | 1322.38 kg/m3
363.15 K | 1314.36 kg/m3

Details | viscosity
273.15 K, 100 kPa | 1717 mPa·s
278.15 K, 100 kPa | 1119 mPa·s
283.15 K, 100 kPa | 755 mPa·s
288.15 K, 100 kPa | 521 mPa·s
293.15 K, 100 kPa | 369 mPa·s
298.15 K, 100 kPa | 271 mPa·s and 273 mPa·s
298.15 K, 12100 kPa | 329 mPa·s
298.15 K, 24700 kPa | 391 mPa·s
298.15 K, 25700 kPa | 390 mPa·s
298.15 K, 50600 kPa | 546 mPa·s
298.15 K, 75800 kPa | 761 mPa·s
298.15 K, 100300 kPa | 1047 mPa·s
298.15 K, 125100 kPa | 1432 mPa·s
298.15 K, 125600 kPa | 1461 mPa·s
298.15 K, 150300 kPa | 1995 mPa·s
298.15 K, 174100 kPa | 2694 mPa·s
303.15 K, 100 kPa | 202 mPa·s
308.15 K, 100 kPa | 158.4 mPa·s
308.15 K, 900 kPa | 159.7 mPa·s
308.15 K, 9600 kPa | 179.1 mPa·s
308.15 K, 25800 kPa | 221 mPa·s
308.15 K, 50300 kPa | 302 mPa·s
308.15 K, 75600 kPa | 412 mPa·s
308.15 K, 100300 kPa | 557 mPa·s
308.15 K, 125200 kPa | 750 mPa·s
308.15 K, 140600 kPa | 898 mPa·s
308.15 K, 151000 kPa | 1016 mPa·s
313.15 K, 100 kPa | 120 mPa·s
323.15 K, 100 kPa | 73.6 mPa·s and 74.1 mPa·s and 74.9 mPa·s
323.15 K, 1300 kPa | 74.9 mPa·s
323.15 K, 3100 kPa | 76.9 mPa·s
323.15 K, 5600 kPa | 78.2 mPa·s
323.15 K, 10700 kPa | 82.7 mPa·s
323.15 K, 25800 kPa | 98.9 mPa·s
323.15 K, 50800 kPa | 127.8 mPa·s
323.15 K, 75800 kPa | 173.5 mPa·s
323.15 K, 100700 kPa | 224 mPa·s
323.15 K, 125500 kPa | 281 mPa·s
323.15 K, 150400 kPa | 371 mPa·s
323.15 K, 175200 kPa | 481 mPa·s
323.15 K, 200000 kPa | 616 mPa·s
323.15 K, 224600 kPa | 784 mPa·s
323.15 K, 249300 kPa | 995 mPa·s
333.15 K, 100 kPa | 49.5 mPa·s [middle of 4 runs]
333.15 K, 10700 kPa | 55.8 mPa·s
333.15 K, 26200 kPa | 66 mPa·s
333.15 K, 51100 kPa | 85.6 mPa·s
333.15 K, 75700 kPa | 109.8 mPa·s
333.15 K, 91100 kPa | 128 mPa·s
333.15 K, 100100 kPa | 139.4 mPa·s
343.15 K, 100 kPa | 35.1 mPa·s and 34.7 mPa·s and 34.6 mPa·s
343.15 K, 5500 kPa | 37.2 mPa·s
343.15 K, 10600 kPa | 39.2 mPa·s
343.15 K, 25700 kPa | 45.6 mPa·s
343.15 K, 50600 kPa | 58 mPa·s
343.15 K, 75600 kPa | 73.7 mPa·s
343.15 K, 100600 kPa | 92.9 mPa·s
343.15 K, 125400 kPa | 116.2 mPa·s
343.15 K, 140200 kPa | 132.6 mPa·s
343.15 K, 149900 kPa | 144.4 mPa·s
343.15 K, 172900 kPa | 176.1 mPa·s
353.15 K, 100 kPa | 25.5 mPa·s
